Data on 20 compounds can be found in patent US10435399B2, “HDAC6 inhibitory heterocyclic compound” (TAKEDA PHARMACEUTICAL COMPANY LIMITED, priority 2017, dated 2019).

This assay has as its target T1, HDAC6 enzyme (Homo sapiens, UniProt Q9UBN7).
T1 construct: transducing full length HDAC6 gene into Sf-9 insect cells; GST; purchased SignalChem; host or cells: Sf-9 insect cells
T1 sequence (Q9UBN7 1-1215): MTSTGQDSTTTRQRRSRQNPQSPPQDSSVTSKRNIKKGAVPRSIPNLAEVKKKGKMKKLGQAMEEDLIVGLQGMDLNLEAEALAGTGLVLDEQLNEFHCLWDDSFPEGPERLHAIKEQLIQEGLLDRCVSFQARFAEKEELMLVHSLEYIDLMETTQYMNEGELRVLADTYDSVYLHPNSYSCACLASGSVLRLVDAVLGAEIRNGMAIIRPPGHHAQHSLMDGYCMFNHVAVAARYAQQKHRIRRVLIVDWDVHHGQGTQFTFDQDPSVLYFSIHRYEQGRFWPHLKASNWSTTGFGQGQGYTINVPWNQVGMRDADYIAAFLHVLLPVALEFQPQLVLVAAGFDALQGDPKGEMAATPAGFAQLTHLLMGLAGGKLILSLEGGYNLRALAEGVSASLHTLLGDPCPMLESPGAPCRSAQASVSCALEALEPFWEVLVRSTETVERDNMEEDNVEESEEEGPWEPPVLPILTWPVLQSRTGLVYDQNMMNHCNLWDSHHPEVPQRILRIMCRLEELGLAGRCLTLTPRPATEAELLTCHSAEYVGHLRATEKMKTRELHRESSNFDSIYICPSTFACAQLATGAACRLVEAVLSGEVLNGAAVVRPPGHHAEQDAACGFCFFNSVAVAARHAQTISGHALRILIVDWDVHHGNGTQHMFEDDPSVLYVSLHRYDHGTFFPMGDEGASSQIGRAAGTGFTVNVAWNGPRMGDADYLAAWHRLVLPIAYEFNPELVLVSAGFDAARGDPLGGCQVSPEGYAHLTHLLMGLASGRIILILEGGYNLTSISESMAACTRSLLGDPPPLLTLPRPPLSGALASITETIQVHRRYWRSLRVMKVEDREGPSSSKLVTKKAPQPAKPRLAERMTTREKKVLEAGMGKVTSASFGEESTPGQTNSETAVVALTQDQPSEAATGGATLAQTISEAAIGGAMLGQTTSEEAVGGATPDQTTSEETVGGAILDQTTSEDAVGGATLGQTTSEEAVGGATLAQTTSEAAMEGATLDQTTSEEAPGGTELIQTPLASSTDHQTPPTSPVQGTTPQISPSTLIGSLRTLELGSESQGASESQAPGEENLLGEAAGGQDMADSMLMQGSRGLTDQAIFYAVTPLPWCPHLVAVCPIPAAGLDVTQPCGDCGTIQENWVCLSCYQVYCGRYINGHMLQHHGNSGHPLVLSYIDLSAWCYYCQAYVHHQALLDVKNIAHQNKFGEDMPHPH
The assay can be described thus: HDAC6 enzyme inhibitory activity (HDAC-Glo I/II Assay kit). In kind it is biochemical. The settings on record: 10 μM; wells without enzyme = 100% inhibition; read-out: HDAC6 inhibitory rate (%) (10 μM). Here is the method:
HDAC6 enzyme prepared by transducing full length HDAC6 gene into Sf-9 insect cells and purifying by GST affinity column were purchased from SignalChem. Using this enzyme, HDAC6 enzyme inhibitory activities of the compound of the present invention were evaluated. Enzymes were used after preserved at −70° C. HDAC6 enzyme inhibitory activity of the compound of the present invention was measured using HDAC-Glo™ I/II Assay kit (Promega) according to the following experimental method. The test compound diluted with assay buffer (24 mM Tris-HCl (pH 7.5), 1 mM MgCl2, 0.35 mM KCl, 135 mM NaCl, 0.6 mM Glutathione, 0.01% Tween-20) was added to a 384-well plate by each 2 μL. Then, HDAC6 enzyme solution diluted with assay buffer was added thereto by each 4 μL, and the plate was incubated at room temperature for 60 min. After incubated, HDAC substrate-Developer solution prepared according to Promega protocol attached to the assay kit was added to the 384-well plate by each 2 μL, and the enzyme reaction was started. After reacting at room temperature for 20 min, luminescence level was measured using plate reader Envision (PerkinElmer). The inhibitory activity of each compound of Example was calculated as a relative activity value when luminescence level in wells without enzyme is considered as 100% inhibition.

Regarding `O=C(N[C@@H]1CCCC[C@H]1N1Cc2ccc(-c3nnc(C(F)F)o3)cc2C1=O)[C@H]1C[C@H]1F` (mixture of isomers) [Example 111, (1RS,2RS)-N-((1R,2R)-2-(6-(5-(difluoromethyl)-1,3,4-oxadiazol-2-yl)-1-oxo-1,3-dihydro-2H-isoindol-2-yl)cyclohexyl)-2-fluorocyclopropanecarboxamide], the inhibition at 10 µM was determined as 101%.

Consider `O=C(N[C@@H]1CCCC[C@H]1N1Cc2ccc(-c3nnc(C(F)F)o3)cc2C1=O)[C@@H]1C[C@H]1F` (racemic) [Example 69, (1SR,2RS)-N-((1R,2R)-2-(6-(5-(difluoromethyl)-1,3,4-oxadiazol-2--yl)-1-oxo-1,3-dihydro-2H-isoindol-2-yl)cyclohexyl)-2-fluorocyclopropanecarboxamide], for which the inhibition at 10 µM worked out at 101%. For `COC(=O)N1CC[C@@H](c2ccc(F)cc2)[C@H](N2Cc3ccc(-c4nnc(C(F)F)o4)cc3C2=O)C1` (racemic) [Example 504, methyl (3SR,4SR)-3-(6-(5-(difluoro-methyl)-1,3,4-oxadiazol-2-yl)-1-oxo-1,3-dihydro-2H-isoindol-2-yl)-4-(4-fluoro-phenyl) piperidine-1-carboxylate], the inhibition at 10 µM amounted to 100%. As for `O=C1c2cc(-c3nnc(C(F)F)o3)ccc2CN1[C@@H]1CCCC[C@H]1n1cccn1` (racemic) [Example 514, 6-(5-(difluoromethyl)-1,3,4-oxadiazol-2-yl)-2-((1RS,2RS)-2-(1H-pyrazol-1-yl)cyclohexyl)isoindolin-1-one], the figure is 99%; as for `O=C1c2cc(-c3nnc(C(F)F)o3)cnc2CN1[C@@H]1CCCC[C@H]1n1cccn1` (racemic) [Example 526, 3-(5-(difluoromethyl)-1,3,4-oxadiazol-2-yl)-6-((1RS,2RS)-2-(1H-pyrazol-1-yl)cyclohexyl)-6,7-dihydro-5H-pyrrolo[3,4-b]pyridin-5-one], 101%. For `O=C1c2cc(-c3nnc(C(F)F)o3)ccc2CN1[C@H]1CCCC[C@H]1n1cccn1` (racemic) [Example 527, 6-(5-(difluoromethyl)-1,3,4-oxadiazol-2-yl)-2-((1SR,2RS)-2-(1H-pyrazol-1-yl)cyclohexyl)isoindolin-1-one], the inhibition at 10 µM worked out at 99%. The same measure for `O=C1c2cc(-c3nnc(C(F)F)o3)cnc2CN1[C@@H]1CCCC[C@H]1Oc1ccc(F)cc1` (racemic) [Example 535, 3-(5-(difluoromethyl)-1,3,4-oxadiazol-2-yl)-6-((1RS,2RS)-2-(4-fluorophenoxy)cyclohexyl)-6,7-dihydro-5H-pyrrolo[3,4-b]pyridin-5-one]: 99%; for `O=C1c2cc(-c3nnc(C(F)F)o3)cnc2CN1[C@H]1CCCC[C@H]1n1cccn1` (racemic) [Example 541, 3-(5-(difluoromethyl)-1,3,4-oxadiazol-2-yl)-6-((1SR,2RS)-2-(1H-pyrazol-1-yl)cyclohexyl)-6,7-dihydro-5H-pyrrolo[3,4-b]pyridin-5-one]: 99%. The same measure for `O=C(C(F)F)N1CC[C@@H](c2ccc(F)cc2)[C@H](N2Cc3ccc(-c4nnc(C(F)F)o4)cc3C2=O)C1` (racemic) [Example 546, 2-((3SR,4SR)-1-(difluoroacetyl)-4-(4-fluorophenyl)piperidin-3-yl)-6-(5-(difluoromethyl)-1,3,4-oxadiazol-2-yl)isoindolin-1-one]: 100%; for `O=C1c2cc(-c3nnc(C(F)F)o3)ccc2CN1[C@@H]1CN(C(=O)C(F)(F)C(F)(F)F)CC[C@H]1c1ccc(F)cc1` (racemic) [Example 548, 6-(5-(difluoromethyl)-1,3,4-oxadiazol-2-yl)-2-((3SR,4SR)-4-(4-fluorophenyl)-1-(2,2,3,3,3-pentafluoropropanoyl)piperidin-3-yl)isoindolin-1-one]: 100%; for `O=C1c2cc(-c3nnc(C(F)F)o3)ccc2CN1[C@@H]1CCCC[C@H]1c1ncco1` (racemic) [Example 549, 6-(5-(difluoromethyl)-1,3,4-oxadiazol-2-yl)-2-((1RS,2RS)-2-(1,3-oxazol-2-yl)cyclohexyl)isoindolin-1-one]: 100%. On to `N#C[C@@H]1CCCC[C@H]1N1Cc2ccc(-c3nnc(C(F)F)o3)cc2C1=O` (racemic) [Example 556, (1RS,2RS)-2-(6-(5-(difluoromethyl)-1,3,4-oxadiazol-2-yl)-1-oxo-1,3-dihydro-2H-isoindol-2-yl)cyclohexanecarbonitrile], for which the inhibition at 10 µM stood at 97%.

Take `O=C1c2cc(-c3nnc(C(F)F)o3)ccc2CN1[C@@H]1CCCC[C@H]1c1noc(C2CC2)n1` (racemic) [Example 558, 2-((1RS,2RS)-2-(5-cyclopropyl-1,2,4-oxadiazol-3-yl)cyclohexyl)-6-(5-(difluoromethyl)-1,3,4-oxadiazol-2-yl)isoindolin-1-one]: the inhibition at 10 µM came out at 99%. The same measure for `O=C1c2cc(-c3nnc(C(F)F)o3)ccc2CN1[C@@H]1CCCC[C@H]1Oc1cncc(F)c1` (racemic) [Example 559, 6-(5-(difluoromethyl)-1,3,4-oxadiazol-2-yl)-2-((1RS,2RS)-2-((5-fluoropyridin-3-yl)oxy)cyclohexyl)isoindolin-1-one]: 100%; for `O=C1c2cc(-c3nnc(C(F)F)o3)ccc2CN1[C@@H]1CCCC[C@H]1c1nc(C2CC2)no1` (racemic) [Example 561, 2-((1RS,2RS)-2-(3-cyclopropyl-1,2,4-oxadiazol-5-yl)cyclohexyl)-6-(5-(difluoromethyl)-1,3,4-oxadiazol-2-yl)isoindolin-1-one]: 100%; for `CC(C)(C)OC(=O)N1CCC[C@H](N2Cc3ccc(-c4nnc(C(F)F)o4)cc3C2=O)[C@H]1c1ccc(F)cc1` (racemic) [Example 574, tert-butyl (2RS,3SR)-3-(6-(5-(difluoromethyl)-1,3,4-oxadiazol-2-yl)-1-oxo-1,3-dihydro-2H-isoindol-2-yl)-2-(4-fluorophenyl)piperidine-1-carboxylate]: 100%.

On to `O=C1c2cc(-c3nnc(C(F)F)o3)ccc2CN1[C@H]1CCCN[C@@H]1c1ccc(F)cc1` (racemic) [Example 575, 6-(5-(difluoromethyl)-1,3,4-oxadiazol-2-yl)-2-((2RS,3SR)-2-(4-fluorophenyl)piperidin-3-yl)isoindolin-1-one], for which the inhibition at 10 µM was 100%. The same measure for `CC(F)(F)C(=O)N1CCC[C@H](N2Cc3ccc(-c4nnc(C(F)F)o4)cc3C2=O)[C@H]1c1ccc(F)cc1` (racemic) [Example 576, 6-(5-(difluoromethyl)-1,3,4-oxadiazol-2-yl)-2-((2RS,3SR)-1-(2,2-difluoropropanoyl)-2-(4-fluorophenyl)piperidin-3-yl)isoindolin-1-one]: 99%; for `O=C1c2cc(-c3nnc(C(F)F)o3)ccc2CN1[C@H]1CCCN(C(=O)C(F)(F)C(F)(F)F)[C@@H]1c1ccc(F)cc1` (racemic) [Example 577, 6-(5-(difluoromethyl)-1,3,4-oxadiazol-2-yl)-2-((2RS,3SR)-2-(4-fluorophenyl)-1-(2,2,3,3,3-pentafluoropropanoyl)piperidin-3-yl)isoindolin-1-one]: 97%; for `COC(=O)N1CCC[C@H](N2Cc3ccc(-c4nnc(C(F)F)o4)cc3C2=O)[C@H]1c1ccc(F)cc1` (racemic) [Example 578, methyl (2RS,3SR)-3-(6-(5-(difluoromethyl)-1,3,4-oxadiazol-2-yl)-1-oxo-1,3-dihydro-2H-isoindol-2-yl)-2-(4-fluorophenyl)piperidine-1-carboxylate]: 100%.
